Test results taken from article PMC5756575, “In Vitro Biotransformation, Safety, and Chemopreventive Action of Novel 8-Methoxy-Purine-2,6-Dione Derivatives” (Applied Biochemistry and Biotechnology, 2017).
Like-named read-outs stand apart in the source and are kept apart here.

Experiments:
[1] = system: Salmonella typhimurium TA100; assay: Ames mutagenicity test; format: cell-based
Protocol: From them, 0.2 mM working solutions were prepared by dilution with water. […]
(§1) In the Ames test, Salmonella typhimurium TA100 strain was used. This strain has a base-pair substitution that can be reverted by mutations at GC pairs. In addition, it contains mutations at uvrB-bio and rfa genes to eliminate excision repair mechanisms and to make the bacteria more permeable to chemicals, respectively. Finally, TA100 also includes pKM101 plasmid, which enhances both chemical and UV-induced mutagenesis via an increase in the error-prone recombinational DNA repair pathway. TA100 strain of S. typhimurium was provided by Dr. T. Nohmi (Division of Genetics and Mutagenesis, National Institute of Hygienic Sciences, Tokyo, Japan). V. harveyi and S. typhimurium bacterial cultures were maintained at 30 and 37 °C, respectively.
It causes point mutations at the genome as it induces G:C → A:T transitions in Vibrio harveyi strains and in other bacteria such as Escherichia coli and S. typhimurium. […]
S. typhimurium was cultivated in a fresh medium 12 h prior to a test. To perform mutagenicity assay, 100 μL of an overnight culture (containing approx. 1 × 10^8 to 2 × 10^8 bacteria) were inoculated along with 50 μL of a tested compound in 2 mL of top agar supplemented with traces of histidine and of biotin. Then the mixture was added over the surface of GM agar plates and was left incubating 48 h at 37 °C. Afterwards, the colonies were counted manually.

Vibrio harveyi BB7 [2] = assay: Vibrio harveyi antimutagenicity assay against NQNO, BB7; format: cell-based
Text: (§2) Four Vibrio harveyi strains were used in this study: a wild-type BB7 (naturally found in the Baltic Sea) and three genetically modified strains, namely BB7M (obtained by the introduction of pAB1273 plasmid containing the genes mucA and mucB to enhance the error-prone DNA repair), BB7X (hypersensitive to UV radiation after genetic modification with Tn5TpMCS), and BB7XM (containing the two abovementioned modifications). These strains were kindly provided by Prof. G. Węgrzyn (Department of Molecular Biology, University of Gdańsk, Poland).
(§3) It causes point mutations at the genome as it induces G:C → A:T transitions in Vibrio harveyi strains and in other bacteria such as Escherichia coli and S. typhimurium. […] Next, its working solution was prepared in sterile water, being 40 ng/mL its final concentration.
(§4) Procedure followed in the V. harveyi antimutagenicity assay was similar to the mutagenicity method described before. […] The results were expressed as the inhibition percentage of mutagenic effect, which was calculated with the formula: 100 − [(R 1/R 2) × 100], where R 1 is the number of revertants per plate in the presence of both mutagen and tested substance, and R 2 is the number of revertants per plate in the presence of mutagen. […] S. typhimurium antimutagenicity assay was based on similar assumptions as the V. harveyi antimutagenicity test. In this case, the chemopreventive activity was determined at two concentrations of a tested compounds and a standard mutagen, i.e., 40 and 500 ng/mL.

rat liver microsomes = assay: Microsomal stability assay; format: in vitro ADME; settings: rat liver microsomes, 1 h of incubation
Protocol: Compounds 1 and 3 were studied in a biotransformation assay using rat liver microsomes following procedures described previously. The reagents used in this assay were levallorphan (internal standard) and NADPH-regenerating system, which contained phosphate buffer (pH 7.4), NADP^+, glucose-6-phosphate, and glucose-6-phosphate dehydrogenase. The final protein concentration in the assay was 0.4 mg/mL. Compounds 1 and 3 were tested at a final concentration of 20 μM.
The amount of a parental compound remaining in a solution after biotransformation was monitored using LC-MS/MS as described previously in “Cunninghamella Biotransformation Assay.” Graphs representing ln of percentage of parent compound remaining versus incubation time were drawn to calculate in vitro half-time (t1/2) from the slope of linear regression. To obtain intrinsic clearance (Clint) of a tested compound in rat liver microsomal assay, t1/2 previously calculated was substituted at the equation Clint = [(Vmic/Pmic) × 0.693/t1/2], being Vmic and Pmic the volume of incubation in microliters and the amount of incubated protein in milligrams, respectively.
Agilent 1100 HPLC system (Agilent Technologies, Waldbronn, Germany) equipped with a Xbridge™ C18 analytical column (2.1 × 30 mm, […]; Waters, Dublin, Ireland) was used in the chromatographic separation of LC-MS/MS analysis. An elution gradient of acetonitrile and water, with 0.1% of formic acid, was used as a mobile phase. MS spectra were taken at Applied Biosystems MDS Sciex API 200 triple quadrupole mass analyzer (Concord, Ontario, Canada) with an electrospray ionization (ESI) interface between HPLC and MS.

Vibrio harveyi BB7XM [3] = assay: Vibrio harveyi mutagenicity assay, BB7XM; format: cell-based; settings: 40 ng/mL
Protocol: (§5) From them, 0.2 mM working solutions were prepared by dilution with water. […] Working solutions were prepared by 1:100 dilution of stock solution in water, and final compound concentration assayed was 40 ng/mL.
as §2, §3
(§6) To perform the V. harveyi mutagenicity test, 10 μL of a working solution of the tested compound (100 μg/mL) were added to V. harveyi bacterial culture (OD600 = 0.1) in NaCl-containing BOSS liquid medium, being 40 ng/mL the final concentration of the tested compound. […] Then, an inoculum containing 5 × 10^6 cells was added to solid BOSS agar plate supplemented with neomycin sulfate at a final concentration of 100 μg/mL. Samples were left incubating 48 h at 30 °C, and revertant colonies were counted manually.

Vibrio harveyi BB7M [4] = assay: Vibrio harveyi antimutagenicity assay against NQNO, BB7M; format: cell-based; settings: compound 40 ng/mL + NQNO 40 ng/mL
Text: as §2, §3, §4

[5] = system: Salmonella typhimurium TA100; assay: S. typhimurium antimutagenicity assay against NQNO; format: cell-based; settings: for Number of revertants per plate, Mean ± SD: antimutagenicity, NQNO line = NQNO as a single compound
Text: as §1, §3, §4

Vibrio harveyi BB7X [6] = assay: Vibrio harveyi antimutagenicity assay against NQNO, BB7X; format: cell-based; settings: compound 40 ng/mL + NQNO 40 ng/mL
Text: as §2, §3, §4

Vibrio harveyi BB7X [7] = settings: 40 ng/mL
Protocol: as §5, §2, §3, §6

Vibrio harveyi BB7M [8] = settings: 40 ng/mL
Protocol: as §5, §2, §3, §6

Vibrio harveyi BB7 [9] = settings: BB7, 40 ng/mL
Protocol: as §5, §2, §3, §6

Vibrio harveyi BB7XM [10] = format: cell-based; settings: compound 40 ng/mL + NQNO 40 ng/mL
Text: as §2, §3, §4

[11] = TA100, 500 ng/mL (NQNO control stated as 40 ng/mL in method)
[12] = antimutagenicity, NQNO line = NQNO as a single compound
[13] = TA100, compound and NQNO 40 ng/mL
[14] = TA100, compound and NQNO 500 ng/mL

What does the source list for COc1nc2c(c(=O)n(C)c(=O)n2C)n1CC(=O)O [Compound 1, 2-(8-methoxy-1,3-dimethyl-2,6-dioxo-purin-7-yl)acetic acid]?
Number of revertants per plate, Mean ± SD ([1]; TA100, 40 ng/mL): 12 ± 5; MI (mutagenicity index) ([1]; TA100, 40 ng/mL, mutagenic if MI >2.0): 0.3; MI (mutagenicity index) [1, 11]: 0.6; Number of revertants per plate, Mean ± SD [1, 11]: 16 ± 3; % inhibition of NQNO mutagenicity (Vibrio harveyi BB7 [2]; BB7, compound 40 ng/mL + NQNO 40 ng/mL): 20%; Number of revertants per plate, Mean ± SD (Vibrio harveyi BB7 [2]; antimutagenicity, BB7, compound 40 ng/mL + NQNO 40 ng/mL, NQNO line = NQNO as a single compound): 44 ± 6; chemopreventive (antimutagenic) effect, class (Vibrio harveyi BB7 [2]; wild BB7 strain, against NQNO): moderate or a close to moderate; metabolic stability in microsomal biotransformation (in words) (rat liver microsomes): metabolically stable; MI (mutagenicity index) (Vibrio harveyi BB7XM [3]; mutagenic if MI above 2.0): 1.1; Number of revertants per plate, Mean ± SD (Vibrio harveyi BB7XM [3]; mutagenicity): 37 ± 11; Number of revertants per plate, Mean ± SD (Vibrio harveyi BB7M [4]; [12]): 60 ± 10; % inhibition of NQNO mutagenicity (Vibrio harveyi BB7M [4]): 39%; % inhibition of NQNO mutagenicity [5, 13]: 88%; % inhibition of NQNO mutagenicity [5, 14]: 95%; Number of revertants per plate, Mean ± SD [5, 13]: 10 ± 3; Number of revertants per plate, Mean ± SD [5, 14]: 5 ± 3; Number of revertants per plate, Mean ± SD (Vibrio harveyi BB7X [6]; [12]): 28 ± 7; % inhibition of NQNO mutagenicity (Vibrio harveyi BB7X [6]): 74%; MI (mutagenicity index) (Vibrio harveyi BB7X [7]; mutagenic if MI above 2.0): 1.4; Number of revertants per plate, Mean ± SD (Vibrio harveyi BB7X [7]; mutagenicity): 30 ± 1; MI (mutagenicity index) (Vibrio harveyi BB7M [8]; mutagenic if MI above 2.0): 1.2; Number of revertants per plate, Mean ± SD (Vibrio harveyi BB7M [8]; mutagenicity): 33 ± 8; MI (mutagenicity index) (Vibrio harveyi BB7 [9]; mutagenic if MI above 2.0): 0.9; Number of revertants per plate, Mean ± SD (Vibrio harveyi BB7 [9]; mutagenicity): 12 ± 2; Number of revertants per plate, Mean ± SD (Vibrio harveyi BB7XM [10]; [12]): 69 ± 10; % inhibition of NQNO mutagenicity (Vibrio harveyi BB7XM [10]): 10%
